Measured values published in patent publication US20250170248A1, “SMARCA DEGRADERS AND USES THEREOF” (Kymera Therapeutics, Inc., priority 2021, published 2025).

Columns and labels:
Type in all cases: cell-based
SMARCA2 [1] = biological target: T1, SMARCA2 (Homo sapiens, UniProt P51531); assay: MSD SMARCA2 degradation in A549 cell line; details: for Dmax: A549, A549 cells; for Dmax / DC50: 24 h; for DC50 / SMARCA2 MSD A549 degradation 24 h: Average Dmax %: A549 cells; for DC50: read-out: SMARCA2 MSD A549 degradation 24 h: Average external-Abs DC50
How it was run: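 A549 cells treated 24 h with compound, 3-fold series from 1000 nM. Lysates captured on MSD plates and SMARCA2 quantified with anti-SMARCA2 and SULFO-TAG secondary antibodies (electrochemiluminescence). DC50 and Dmax (% degradation at 24 h) reported as letter bins.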

SMARCA4 = biological target: T2, SMARCA4 (Homo sapiens, UniProt P51532); assay: SMARCA4 Western blot degradation in MV4-11 cells; details: for Dmax: MV4-11, MV4-11 cells, read-out: SMARCA4 MSD MV411 degradation 24 h: average Dmax %; for Dmax / DC50: 24 h; for DC50 / SMARCA4 MSD MV411 degradation 24 h: average Dmax %: MV4-11 cells; for DC50: read-out: SMARCA4 MSD MV411 degradation 24 h: Mean external-Abs DC50
T2 construct: SMARCA2/SMARCA4 protein degradation selectivity in MV4-11 cells; endogenous in cells; host or cells: MV4-11
How it was run: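 24 h compound exposure, MV4-11; RIPA lysates → SDS-PAGE → NC membrane; anti-SMARCA2/BRM, anti-BRG1, β-actin loading control; LI-COR fluorescence read. DC50 and Dmax at 24 h reported as letter bins.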

SMARCA2 [2] = biological target: T1, SMARCA2; assay: SMARCA2 Western blot degradation in MV4-11 cells; set-up: SMARCA2/SMARCA4 protein degradation selectivity in MV4-11 cells; endogenous in cells; host or cells: MV4-11; details: for Dmax: MV4-11, MV4-11 cells, read-out: SMARCA2 MSD MV411 degradation 24 h: average Dmax %; for Dmax / DC50 / SMARCA2 MSD MV411 degradation 24 h: average Dmax %: 24 h; for DC50 / Selectivity in MV411 / SMARCA2 MSD MV411 degradation 24 h: average Dmax %: MV4-11 cells; for DC50: read-out: SMARCA2 MSD MV411 degradation 24 h: Mean external-Abs DC50; for Selectivity in MV411: SMARCA2/4 selectivity

T2 sequence (P51532 whole entry): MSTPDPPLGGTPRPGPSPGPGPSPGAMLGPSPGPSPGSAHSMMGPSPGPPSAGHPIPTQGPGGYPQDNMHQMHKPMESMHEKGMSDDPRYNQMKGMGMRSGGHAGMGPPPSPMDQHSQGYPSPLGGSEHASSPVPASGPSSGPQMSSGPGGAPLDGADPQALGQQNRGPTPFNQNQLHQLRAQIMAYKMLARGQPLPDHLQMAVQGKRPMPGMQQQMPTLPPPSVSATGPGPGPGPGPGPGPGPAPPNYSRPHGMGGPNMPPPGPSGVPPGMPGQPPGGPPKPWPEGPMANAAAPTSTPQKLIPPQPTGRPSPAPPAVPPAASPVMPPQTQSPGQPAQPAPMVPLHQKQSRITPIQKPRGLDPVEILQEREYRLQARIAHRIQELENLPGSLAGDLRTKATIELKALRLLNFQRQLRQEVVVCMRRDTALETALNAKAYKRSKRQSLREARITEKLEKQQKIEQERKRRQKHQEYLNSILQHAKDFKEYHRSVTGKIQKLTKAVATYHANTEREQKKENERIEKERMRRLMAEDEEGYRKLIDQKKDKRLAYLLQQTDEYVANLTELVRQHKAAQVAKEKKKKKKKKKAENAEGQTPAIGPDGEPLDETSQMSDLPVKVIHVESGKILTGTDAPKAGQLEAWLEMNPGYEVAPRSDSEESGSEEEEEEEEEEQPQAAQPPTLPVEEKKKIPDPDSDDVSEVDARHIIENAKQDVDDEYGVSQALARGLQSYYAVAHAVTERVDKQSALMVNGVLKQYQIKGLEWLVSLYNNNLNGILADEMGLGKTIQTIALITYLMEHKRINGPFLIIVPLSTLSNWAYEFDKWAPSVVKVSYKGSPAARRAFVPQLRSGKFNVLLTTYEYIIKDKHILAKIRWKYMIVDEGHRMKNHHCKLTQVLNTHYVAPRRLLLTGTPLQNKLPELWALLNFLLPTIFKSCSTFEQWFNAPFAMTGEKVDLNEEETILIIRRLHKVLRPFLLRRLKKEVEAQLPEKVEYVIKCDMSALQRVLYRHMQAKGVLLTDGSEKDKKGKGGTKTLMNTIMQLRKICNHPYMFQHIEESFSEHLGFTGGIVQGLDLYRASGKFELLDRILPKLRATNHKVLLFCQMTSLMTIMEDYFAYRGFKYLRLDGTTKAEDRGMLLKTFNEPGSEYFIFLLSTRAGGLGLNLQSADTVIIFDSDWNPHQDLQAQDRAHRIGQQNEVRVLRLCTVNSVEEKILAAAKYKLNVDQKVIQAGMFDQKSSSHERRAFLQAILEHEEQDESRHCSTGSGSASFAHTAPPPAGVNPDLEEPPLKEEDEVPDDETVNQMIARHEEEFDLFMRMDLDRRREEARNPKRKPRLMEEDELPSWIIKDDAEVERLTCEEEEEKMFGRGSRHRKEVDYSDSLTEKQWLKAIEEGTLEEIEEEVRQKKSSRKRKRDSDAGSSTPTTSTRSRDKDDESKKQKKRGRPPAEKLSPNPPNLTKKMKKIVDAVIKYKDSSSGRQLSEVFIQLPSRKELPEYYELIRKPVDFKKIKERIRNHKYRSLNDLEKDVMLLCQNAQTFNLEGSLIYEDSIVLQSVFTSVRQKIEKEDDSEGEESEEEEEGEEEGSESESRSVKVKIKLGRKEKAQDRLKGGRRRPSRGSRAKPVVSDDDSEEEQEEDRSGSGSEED
T1 sequence (P51531 whole entry): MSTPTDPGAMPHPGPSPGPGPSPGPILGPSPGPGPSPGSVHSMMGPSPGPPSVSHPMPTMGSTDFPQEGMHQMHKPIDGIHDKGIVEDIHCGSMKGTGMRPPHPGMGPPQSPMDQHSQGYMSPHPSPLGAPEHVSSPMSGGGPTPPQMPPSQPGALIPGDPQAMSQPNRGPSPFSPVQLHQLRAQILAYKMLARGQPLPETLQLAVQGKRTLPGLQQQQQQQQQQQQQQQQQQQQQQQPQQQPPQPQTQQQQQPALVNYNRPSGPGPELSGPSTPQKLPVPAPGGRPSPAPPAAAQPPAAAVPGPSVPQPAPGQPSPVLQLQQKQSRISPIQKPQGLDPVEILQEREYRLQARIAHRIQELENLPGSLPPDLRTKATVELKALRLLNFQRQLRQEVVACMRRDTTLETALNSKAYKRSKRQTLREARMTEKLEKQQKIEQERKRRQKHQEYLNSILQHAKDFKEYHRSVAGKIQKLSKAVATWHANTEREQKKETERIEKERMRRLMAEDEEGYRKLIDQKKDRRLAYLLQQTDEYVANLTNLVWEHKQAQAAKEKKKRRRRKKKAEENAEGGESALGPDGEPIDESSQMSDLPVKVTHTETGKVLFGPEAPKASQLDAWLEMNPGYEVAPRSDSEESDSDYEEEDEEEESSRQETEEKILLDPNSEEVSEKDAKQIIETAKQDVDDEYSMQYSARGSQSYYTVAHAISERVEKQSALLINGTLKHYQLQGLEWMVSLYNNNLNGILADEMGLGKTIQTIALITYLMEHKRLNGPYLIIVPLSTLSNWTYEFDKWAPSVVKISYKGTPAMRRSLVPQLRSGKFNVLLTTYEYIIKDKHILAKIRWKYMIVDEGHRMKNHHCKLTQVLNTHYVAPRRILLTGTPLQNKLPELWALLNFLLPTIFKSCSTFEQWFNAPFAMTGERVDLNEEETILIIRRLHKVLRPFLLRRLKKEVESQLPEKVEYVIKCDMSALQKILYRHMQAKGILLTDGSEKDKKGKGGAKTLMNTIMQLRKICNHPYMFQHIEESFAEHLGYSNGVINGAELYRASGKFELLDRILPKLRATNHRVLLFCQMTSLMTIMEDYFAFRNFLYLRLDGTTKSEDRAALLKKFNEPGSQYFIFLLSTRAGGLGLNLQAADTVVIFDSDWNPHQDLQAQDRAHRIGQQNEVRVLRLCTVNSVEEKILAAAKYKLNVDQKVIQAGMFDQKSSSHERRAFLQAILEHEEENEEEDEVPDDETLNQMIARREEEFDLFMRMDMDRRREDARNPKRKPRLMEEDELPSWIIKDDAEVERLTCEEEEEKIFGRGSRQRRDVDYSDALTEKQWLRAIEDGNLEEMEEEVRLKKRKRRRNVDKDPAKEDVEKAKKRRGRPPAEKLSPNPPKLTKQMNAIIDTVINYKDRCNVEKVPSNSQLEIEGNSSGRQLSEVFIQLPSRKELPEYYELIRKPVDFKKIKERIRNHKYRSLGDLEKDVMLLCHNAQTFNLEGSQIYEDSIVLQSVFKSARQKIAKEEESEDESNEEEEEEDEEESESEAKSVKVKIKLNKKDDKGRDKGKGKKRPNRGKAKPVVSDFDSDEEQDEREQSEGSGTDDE

Row | Compound | Dmax (SMARCA2 [1]) | DC50 (SMARCA2 [1]) | Dmax (SMARCA4) | DC50 (SMARCA4) | Dmax (SMARCA2 [2]) | DC50 (SMARCA2 [2]) | Selectivity in MV411 (SMARCA2 [2]) | SMARCA2 MSD A549 degradation 24 h: Average Dmax % (SMARCA2 [1]) | SMARCA4 MSD MV411 degradation 24 h: average Dmax % (SMARCA4) | SMARCA2 MSD MV411 degradation 24 h: average Dmax % (SMARCA2 [2])
1 | C#Cc1ccc(CNC(=O)[C@@H]2C[C@@H](O)CN2C(=O)[C@@H](NC(=O)N2CC3(CC(N4CCC(c5cnc(N6CCc7[nH]c8nnc(-c9ccccc9O)cc8c7[C@H]6CO)nc5)CC4)C3)C2)C(C)(C)C)cc1 [I-146] | > 90% | < 10 nM | 70 to 90% | 10 to 100 nM | > 90% | 1 to 10 nM | C (C (10-100 fold)) | – | – | –
2 | C#Cc1ccc(CNC(=O)[C@@H]2C[C@@H](O)CN2C(=O)[C@@H](NC(=O)N2CC3(CC(N4CCC(c5cnc(N6CCc7[nH]c8nnc(-c9ccccc9O)cc8c7[C@H]6C)nc5)CC4)C3)C2)C(C)(C)C)cc1 (single isomer, unassigned) [I-73] | > 90% | < 10 nM | 70 to 90% | 10 to 100 nM | > 90% | 1 to 10 nM | C (C (10-100 fold)) | – | – | –
3 | C#Cc1ccc(CNC(=O)[C@@H]2C[C@@H](O)CN2C(=O)[C@@H](NC(=O)N2CC3(CC(N4CCC(c5cnc(N6CCc7[nH]c8nnc(-c9ccccc9O)cc8c7[C@H]6C)nc5)CC4)C3)C2)C(C)(C)C)c(OCCCN(C)C)c1 [I-127] | > 90% | > 100 nM | 70 to 90% | > 100 nM | 70 to 90% | 10 to 100 nM | D (D (<10 fold)) | – | – | –
4 | C#Cc1ccc(C2(NC(=O)[C@@H]3C[C@@H](O)CN3C(=O)[C@@H](NC(=O)[C@H]3CC4(C3)C[C@H](N3CCC(N5CCC(N6CCN7c8cc(-c9ccccc9O)nnc8NC[C@H]7C6)CC5)CC3)C4)C(C)(C)C)CC2)cc1 (single isomer, unassigned) [I-211] | > 90% | 50 to 100 nM | < 50% | > 100 nM | 70 to 90% | 1 to 10 nM | A (A (>500 fold)) | – | – | –
5 | C#Cc1ccc(CNC(=O)[C@@H]2C[C@@H](O)CN2C(=O)[C@@H](NC(=O)C2CC3(C2)CN(c2cnc(N4CCC(N5CCN6c7cc(-c8ccccc8O)nnc7NC[C@H]6C5)CC4)cn2)C3)C(C)(C)C)cc1 [I-320] | > 90% | < 10 nM | > 90% | 10 to 100 nM | > 90% | 1 to 10 nM | C (C (10-100 fold)) | – | – | –
6 | C#Cc1ccc(CNC(=O)[C@@H]2C[C@@H](O)CN2C(=O)[C@@H](NC(=O)C2CCC3(CC2)CC(N2CCC(N4CC(C(=O)N5CCN6c7cc(-c8ccccc8O)nnc7NC[C@H]6C5)C4)CC2)C3)C(C)(C)C)cc1 (stereo partly drawn) [I-92] | > 90% | > 100 nM | 50 to 70% | > 100 nM | 70 to 90% | 1 to 10 nM | C (C (10-100 fold)) | – | – | –
7 | C#Cc1ccc(CNC(=O)[C@@H]2C[C@@H](O)CN2C(=O)[C@@H](NC(=O)N2CC3(CC(N4CCC([C@H]5CC[C@H](N6CCc7[nH]c8nnc(-c9ccccc9O)cc8c7[C@H]6C)CC5)CC4)C3)C2)C(C)(C)C)cc1 [I-184] | > 90% | > 100 nM | < 50% | > 100 nM | < 50% | > 100 nM | C (C (10-100 fold)) | – | – | –
8 | C#Cc1ccc(CNC(=O)[C@@H]2C[C@@H](O)CN2C(=O)[C@H](NC(=O)N2CC3(CC(N4CCC(c5cnc(N6CCc7[nH]c8nnc(-c9ccccc9O)cc8c7[C@H]6C)nc5)CC4)C3)C2)C(C)(C)CCOCC(=O)O)cc1 (single isomer, unassigned) [I-263] | < 50% | > 100 nM | < 50% | > 100 nM | < 50% | > 100 nM | C (C (10-100 fold)) | – | – | –

Further lines, results first:

Row | Dmax (SMARCA2 [1]) | DC50 (SMARCA2 [1]) | Dmax (SMARCA4) | DC50 (SMARCA4) | Dmax (SMARCA2 [2]) | DC50 (SMARCA2 [2]) | Selectivity in MV411 (SMARCA2 [2]) | SMARCA2 MSD A549 degradation 24 h: Average Dmax % (SMARCA2 [1]) | SMARCA4 MSD MV411 degradation 24 h: average Dmax % (SMARCA4) | SMARCA2 MSD MV411 degradation 24 h: average Dmax % (SMARCA2 [2]) | Compound
9 | > 90% | 10 to 50 nM | 70 to 90% | > 100 nM | > 90% | 10 to 100 nM | C (C (10-100 fold)) | – | – | – | C#Cc1ccc([C@H](C)NC(=O)[C@@H]2C[C@@H](O)CN2C(=O)[C@@H](NC(=O)N2CC3(CC(N4CCC(c5cnc(N6CCc7[nH]c8nnc(-c9ccccc9O)cc8c7[C@H]6C)cn5)CC4)C3)C2)C(C)(C)C)cc1 [I-250]
10 | – | > 100 nM | – | > 100 nM | – | – | C (C (10-100 fold)) | – | – | – | C#Cc1cnc(CNC(=O)[C@@H]2C[C@@H](O)CN2C(=O)[C@@H](NC(=O)[C@H]2CC3(C2)C[C@H](N2CCC(N4CCC(N5CCN6c7cc(-c8ccccc8O)nnc7NC[C@H]6C5)CC4)CC2)C3)C(C)(C)C)c(OC)c1 (stereo partly drawn) [I-331]
11 | – | > 100 nM | – | > 100 nM | – | 1 to 10 nM | B (B (>100-500 fold)) | C (C (50-70% degradation)) | D (D (<50% degradation)) | B (B (>70-90% degradation)) | Cc1ncsc1-c1ccc(CNC(=O)[C@@H]2C[C@@H](O)CN2C(=O)[C@@H](NC(=O)[C@H]2CC3(C2)C[C@H](N2CCC(c4ccnc(N5CCN6c7cc(-c8ccccc8O)nnc7NC[C@@H]6C5)n4)CC2)C3)C(C)(C)C)cc1 (single isomer, unassigned) [I-4]
12 | 50 to 70% | > 100 nM | < 50% | > 100 nM | 50 to 70% | 10 to 100 nM | C (C (10-100 fold)) | – | – | – | Cc1ncsc1-c1ccc(CNC(=O)[C@@H]2C[C@@H](O)CN2C(=O)[C@@H](NC(=O)C2(F)CC2)C(C)(C)C)c(O[C@H]2CC[C@H](N3CCC(c4cnc(N5CCc6[nH]c7nnc(-c8ccccc8O)cc7c6[C@@H]5C)nc4)CC3)CC2)c1 (single isomer, unassigned) [I-33]
13 | > 90% | 10 to 50 nM | > 90% | 10 to 100 nM | > 90% | 1 to 10 nM | C (C (10-100 fold)) | – | – | – | Cc1ncsc1-c1ccc(CNC(=O)[C@@H]2C[C@@H](O)CN2C(=O)C(c2cc(N3CCC4(CC3)CC(N3CCC(c5cnc(N6CCc7[nH]c8nnc(-c9ccccc9O)cc8c7[C@H]6C)nc5)CC3)C4)no2)C(C)C)cc1 (stereo partly drawn) [I-13]
14 | > 90% | < 10 nM | > 90% | 10 to 100 nM | > 90% | 1 to 10 nM | C (C (10-100 fold)) | – | – | – | C#Cc1ccc(CNC(=O)[C@@H]2C[C@@H](O)CN2C(=O)[C@@H](NC(=O)N2CC3(CC(N4CCC(c5cnc(N6CCc7[nH]c8nnc(-c9ccccc9O)cc8c7[C@H]6C)nc5)CC4)C3)C2)C(C)(C)C)c(O)c1 [I-166]
15 | – | 10 to 50 nM | – | > 100 nM | – | 1 to 10 nM | C (C (10-100 fold)) | A (A (>90% degradation)) | C (C (50-70% degradation)) | B (B (>70-90% degradation)) | C#Cc1ccc(CNC(=O)[C@@H]2C[C@@H](O)CN2C(=O)[C@@H](NC(=O)[C@H]2CCC3(CC2)C[C@H](N2CCN(c4cnc(N5CCN6c7cc(-c8ccccc8O)nnc7NC[C@H]6C5)nc4)CC2)C3)C(C)(C)C)c(OC)c1 (single isomer, unassigned) [I-196]
16 | < 50% | > 100 nM | < 50% | > 100 nM | < 50% | > 100 nM | D (D (<10 fold)) | – | – | – | C#Cc1ccc(CNC(=O)[C@@H]2C[C@@H](O)CN2C(=O)[C@H](NC(=O)[C@H]2CCC3(CC2)C[C@H](N2CCN(c4cnc(N5CCN6c7cc(-c8ccccc8O)nnc7NC[C@H]6C5)nc4)CC2)C3)C(C)(C)CCO)c(Cl)c1 (single isomer, unassigned) [I-306]
17 | > 90% | > 100 nM | 50 to 70% | > 100 nM | 50 to 70% | 10 to 100 nM | C (C (10-100 fold)) | – | – | – | C#Cc1ccc(CNC(=O)[C@@H]2C[C@@H](O)CN2C(=O)[C@@H](NC(=O)N2CC3(CC(N4CCC5(CCN(c6cnc(N7CCc8[nH]c9nnc(-c%10ccccc%10O)cc9c8C7C)nc6)C5)C4)C3)C2)C(C)(C)C)cc1 (stereo partly drawn) [I-173]
18 | > 90% | 10 to 50 nM | 50 to 70% | 10 to 100 nM | > 90% | < 1 nM | C (C (10-100 fold)) | – | – | – | C#Cc1ccc(CNC(=O)[C@@H]2C[C@@H](O)CN2C(=O)[C@@H](NC(=O)[C@H]2CCC3(CC2)C[C@H](N2CCC(c4cnc(N5CCN6c7cc(-c8ccccc8O)nnc7NC[C@H]6C5)nc4)CC2)C3)C(C)(C)CCO)cc1 (single isomer, unassigned) [I-131]
19 | > 90% | 10 to 50 nM | > 90% | 10 to 100 nM | > 90% | < 1 nM | C (C (10-100 fold)) | – | – | – | C#CCOc1cc(C(C(=O)N2C[C@H](O)C[C@H]2C(=O)NCc2ccc(-c3scnc3C)cc2O[C@H]2CC[C@H](N3CCC(c4cnc(N5CCc6[nH]c7nnc(-c8ccccc8O)cc7c6[C@H]5C)nc4)CC3)CC2)C(C)C)on1 (single isomer, unassigned) [I-38]
